In ChEMBL document CHEMBL1795337, “Sulfonamides incorporating boroxazolidone moieties are potent inhibitors of the transmembrane, tumor-associated carbonic anhydrase isoforms IX and XII” (Bioorg Med Chem Lett, 2011):

These compounds were tested against Carbonic anhydrase 9 (Homo sapiens, UniProt Q16790).
Description: Inhibition of human recombinant catalytic domain of carbonic anhydrase 9 preincubated for 15 mins by stopped-flow CO2 hydration assay

SMILES	Ki [nM]
CCB(CC)OC(=O)[C@@H](N)CCCCNC(=S)Nc1ccc(S(N)(=O)=O)cc1	9.3
CCB(CC)OC(=O)[C@@H](N)CCCCNC(=S)Nc1cccc(S(N)(=O)=O)c1	9.5
CCB(CC)OC(=O)[C@@H](N)CCCCNC(=S)Nc1ccc(S(N)(=O)=O)cc1F	89
CCB(CC)OC(=O)[C@@H](N)CCCCNC(=S)Nc1ccc(S(=O)(=O)NCc2ccc(S(N)(=O)=O)cc2)cc1	7.7
CCB(CC)OC(=O)[C@@H](N)CCCCNC(=S)Nc1ccc(S(=O)(=O)NCCc2ccc(S(N)(=O)=O)cc2)cc1	9

Now from value to compound:

Ki [nM]	SMILES
9.5	CCB(CC)OC(=O)[C@@H](N)CCCCNC(=S)NCc1ccc(S(N)(=O)=O)cc1
9.6	CCB(CC)OC(=O)[C@@H](N)CCCCNC(=S)NCCc1ccc(S(N)(=O)=O)cc1
91	CCB(CC)OC(=O)[C@@H](N)CCCCNC(=S)Nc1ccc(S(N)(=O)=O)cc1Cl
92	CCB(CC)OC(=O)[C@@H](N)CCCCNC(=S)Nc1ccc(S(N)(=O)=O)cc1Br
8.6	CCB(CC)OC(=O)[C@@H](N)CCCCNC(=S)Nc1ccc(S(=O)(=O)Nc2nnc(S(N)(=O)=O)s2)cc1
